The target in experiment [1] is recombinant human GAA (acid alpha-glucosidase) (Homo sapiens, UniProt P10253). In words: Acid alpha-glucosidase (GAA) assay (4-methylumbelliferyl-alpha-D-pyranoside substrate, fluorescence). Type of experiment: biochemical. The procedure, abridged:
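Recombinant human enzyme preincubated 60 min at 37 °C with compound dilutions, then 4-methylumbelliferyl-alpha-D-pyranoside substrate added for 20 min at 37 °C. Stopped with glycine/NaOH pH 10; methylumbelliferone fluorescence (ex 365, em 440 nm) versus untreated enzyme; IC50 by 4-PL fit.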

Experiment [2] concerns the target T1, recombinant human GBA (beta-glucocerebrosidase) (Homo sapiens, UniProt P04062).
T1 sequence (P04062 40-536): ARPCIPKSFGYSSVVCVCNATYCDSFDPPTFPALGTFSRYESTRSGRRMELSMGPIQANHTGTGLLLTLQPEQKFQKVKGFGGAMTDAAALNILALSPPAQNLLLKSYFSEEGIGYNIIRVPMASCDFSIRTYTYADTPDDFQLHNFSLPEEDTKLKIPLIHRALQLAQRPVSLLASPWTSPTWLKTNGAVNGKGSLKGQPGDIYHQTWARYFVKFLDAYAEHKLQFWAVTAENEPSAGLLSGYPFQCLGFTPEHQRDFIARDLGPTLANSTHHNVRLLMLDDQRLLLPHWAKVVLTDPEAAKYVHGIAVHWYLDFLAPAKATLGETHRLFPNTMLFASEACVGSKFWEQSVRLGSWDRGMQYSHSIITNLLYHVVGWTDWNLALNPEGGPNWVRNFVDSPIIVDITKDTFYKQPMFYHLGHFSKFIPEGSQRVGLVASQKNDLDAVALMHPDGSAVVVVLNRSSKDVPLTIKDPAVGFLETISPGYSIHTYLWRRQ
The experiment in a line: Beta-glucocerebrosidase (GBA, glucosylceramidase) assay (4-methylumbelliferyl-beta-D-pyranoside substrate, fluorescence). Type of experiment: biochemical. In short, it runs like this: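 Recombinant human GBA preincubated with compound dilutions 60 min at 37 °C, then 4-methylumbelliferyl-beta-D-pyranoside added for 60 min at 37 °C. Stopped at pH 10 (glycine/NaOH); fluorescence ex 365/em 440 nm. IC50 from 4-PL fit of inhibition relative to untreated enzyme.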

Structures are written as SMILES. pIC50: −log10 of the molar value. Where only a bound is given, the exact number is not on record here.

A word on the pIC50: it is the negative decadic logarithm of the IC50, by convention in mol/L.

As to `Cc1cc(NCc2cnc(CN3C[C@H](O)[C@@H](O)[C@H](O)[C@H]3CO)cn2)cc(N2CCOCC2)c1` [Compound 1332, (2R,3R,4R,5S)-2-(hydroxymethyl)-1-{[5-({[3-methyl-5-(morpholin-4-yl)phenyl]amino}methyl)pyrazin-2-yl]methyl}piperidine-3,4,5-triol], the pIC50 in experiment [1] was 6.78; in experiment [2], below 4.00.

On to `OC[C@@H]1[C@@H](O)[C@H](O)[C@@H](O)CN1Cc1cccc(CNc2cc(-c3ncccn3)cc(C3CC3)c2)n1` [Compound 1333, (2R,3R,4R,5S)-1-{[6-({[3-cyclopropyl-5-(pyrimidin-2-yl)phenyl]amino}methyl)pyridin-2-yl]methyl}-2-(hydroxymethyl)piperidine-3,4,5-triol], for which the pIC50 was 5.66 in experiment [1] and below 4.00 in experiment [2].

Turning to `Cc1cc(NCc2cccc(CN3C[C@H](O)[C@@H](O)[C@H](O)[C@H]3CO)n2)cc(-c2ccco2)c1` [Compound 1334, (2R,3R,4R,5S)-1-{[6-({[3-(furan-2-yl)-5-methylphenyl]amino}methyl)pyridin-2-yl]methyl}-2-(hydroxymethyl)piperidine-3,4,5-triol], the figures for the pIC50 in experiment [1] and in experiment [2] were 6.15 and below 4.00, respectively.

`Cc1cc(NCc2cccc(CN3C[C@H](O)[C@@H](O)[C@H](O)[C@H]3CO)n2)cc(N2CCOCC2)c1` [Compound 1336, (2R,3R,4R,5S)-2-(hydroxymethyl)-1-{[6-({[3-methyl-5-(morpholin-4-yl)phenyl]amino}methyl)pyridin-2-yl]methyl}piperidine-3,4,5-triol]: the pIC50 in experiment [1] is 4.98; in experiment [2] it was below 4.00.

`COc1ccc(C#CCCCCCN2C[C@H](O)[C@@H](O)[C@H](O)[C@H]2CO)cc1` [Compound 1338, (2R,3R,4R,5S)-2-(hydroxymethyl)-1-[7-(4-methoxyphenyl)hept-6-yn-1-yl]piperidine-3,4,5-triol]: the negative-log IC50 (pIC50) in experiment [1] is 6.07; in experiment [2], 5.03.

The record behind these values is patent US20250197372A1 (priority 2020, published 2025).
